Test results from US5534498A, “Trypsin inhibitors” (Corvas International, Inc., priority 1993, dated 1996).

How the values were obtained:
[1] = molecular target: T1, Activated human Protein C (Homo sapiens, UniProt P04070); assay: Protein C assay (Pefachrome PC substrate); type: biochemical; details: 30 min preincubation, room temperature; tested 0.025-25 μM; Inact. = no inhibition at highest concentration
T1 construct: from tissue
Experimental: (§1) The specificity of the peptide aldehydes (8 through 12) was determined in vitro by measurement of their IC50 against other enzymes involved in hemostasis. A specific concentration of enzyme and its substrate were challenged with varying concentrations of inhibitor. […] Specific assay procedures used are presented below.
(§2) 96-well microtiter plates were prepared for use in these assays by incubating each well with 300 μL 1% bovine serum albumin (in deionized water) for 30 minutes at 37° C., then washing three times with deionized water.
Enzyme activity was determined using as substrate, Pefachrome PC [δ-carbobenzoloxy-D-lysyl-L-prolyl-L-arginine-p-nitroanilide], purchased from Centerchem, Inc. The substrate was made up in deionized water prior to use. Protac used to activate Protein C was obtained from American Diagnostics.

[2] = molecular target: T2, human Factor Xa (Homo sapiens, UniProt P00742); assay: Factor Xa assay (Pefachrome Xa substrate); type: biochemical; details: 30 min preincubation, room temperature; tested 0.025-25 μM; Inact. = no inhibition at highest concentration
T2 construct: 50 μL 30 nM human Factor Xa
T2 sequence (P00742 235-488 limits assumed): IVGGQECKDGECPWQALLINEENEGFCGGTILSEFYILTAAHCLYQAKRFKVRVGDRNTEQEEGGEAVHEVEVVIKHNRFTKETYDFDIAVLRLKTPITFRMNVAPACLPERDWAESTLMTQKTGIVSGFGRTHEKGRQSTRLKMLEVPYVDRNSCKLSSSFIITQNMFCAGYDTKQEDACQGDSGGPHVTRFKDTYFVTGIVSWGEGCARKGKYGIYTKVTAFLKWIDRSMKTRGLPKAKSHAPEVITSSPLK
T2 sequence (P00742 41-179 partner limits assumed): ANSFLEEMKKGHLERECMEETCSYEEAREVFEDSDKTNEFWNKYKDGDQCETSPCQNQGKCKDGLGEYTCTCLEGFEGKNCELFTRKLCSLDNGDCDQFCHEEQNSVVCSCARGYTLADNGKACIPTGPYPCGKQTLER
Experimental: as §1, §2
Enzyme activity was determined using as substrate, Pefachrome Xa [N-methoxycarbonyl-D-cyclohexylalanyl-L-glycyl-L-arginine p-niroanilide acetate], purchased from Centerchem, Inc. The substrate was made up in deionized water prior to use.

[3] = test system: acute pancreatitis induced in animal models; details: literature reports; cited from earlier work
[4] = molecular target: plasmin (Homo sapiens, UniProt P00747); assay: Plasmin assay (S-2251 substrate); type: biochemical; design: 50 μL 25 nM human plasmin; details: 30 min preincubation, room temperature; tested 0.025-25 μM; Inact. = no inhibition at highest concentration
plasmin, sequence (P00747 581-810 limits assumed): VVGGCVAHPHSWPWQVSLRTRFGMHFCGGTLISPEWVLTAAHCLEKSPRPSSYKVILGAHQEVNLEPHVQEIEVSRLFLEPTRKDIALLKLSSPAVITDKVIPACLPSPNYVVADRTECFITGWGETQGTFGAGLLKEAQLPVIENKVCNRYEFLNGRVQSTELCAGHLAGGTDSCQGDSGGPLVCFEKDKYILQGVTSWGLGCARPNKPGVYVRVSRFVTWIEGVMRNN
plasmin, sequence (P00747 97-580 partner limits assumed): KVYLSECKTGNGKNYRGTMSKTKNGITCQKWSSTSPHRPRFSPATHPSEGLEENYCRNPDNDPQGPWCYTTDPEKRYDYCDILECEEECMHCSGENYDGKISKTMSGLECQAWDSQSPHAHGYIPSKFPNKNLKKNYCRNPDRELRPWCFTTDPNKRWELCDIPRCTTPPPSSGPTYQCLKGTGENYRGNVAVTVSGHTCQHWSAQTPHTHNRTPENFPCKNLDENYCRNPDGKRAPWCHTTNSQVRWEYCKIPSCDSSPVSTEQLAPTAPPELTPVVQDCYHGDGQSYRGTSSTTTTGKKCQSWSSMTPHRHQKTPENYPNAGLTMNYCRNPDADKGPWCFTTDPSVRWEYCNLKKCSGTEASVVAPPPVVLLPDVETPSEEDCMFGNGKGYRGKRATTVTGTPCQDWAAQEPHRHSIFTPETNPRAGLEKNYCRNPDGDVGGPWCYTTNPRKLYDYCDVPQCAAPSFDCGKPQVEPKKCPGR
Experimental: as §1, §2
(§3) The substrate was made up in deionized water prior to use.

[5] = molecular target: T3, bovine trypsin (Bos taurus, UniProt P00760); assay: Trypsin assay, IC50 (S-2222 substrate); type: biochemical; details: 30 min preincubation, room temperature; tested 0.025-25 μM
T3 sequence (P00760 24-246): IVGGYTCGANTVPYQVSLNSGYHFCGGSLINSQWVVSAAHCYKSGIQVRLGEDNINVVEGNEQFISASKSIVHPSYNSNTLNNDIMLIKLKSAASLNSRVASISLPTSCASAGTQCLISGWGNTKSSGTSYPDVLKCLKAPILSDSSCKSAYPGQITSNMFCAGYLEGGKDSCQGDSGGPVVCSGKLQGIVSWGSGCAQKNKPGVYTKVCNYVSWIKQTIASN
Experimental: as §1, §2, §3

[6] = molecular target: recombinant tissue plasminogen activator (Homo sapiens, UniProt P00750); assay: Tissue plasminogen activator assay (S-2288 substrate); type: biochemical; details: 30 min preincubation, room temperature; tested 0.025-25 μM; Inact. = no inhibition at highest concentration
recombinant tissue plasminogen activator, sequence (P00750 36-562): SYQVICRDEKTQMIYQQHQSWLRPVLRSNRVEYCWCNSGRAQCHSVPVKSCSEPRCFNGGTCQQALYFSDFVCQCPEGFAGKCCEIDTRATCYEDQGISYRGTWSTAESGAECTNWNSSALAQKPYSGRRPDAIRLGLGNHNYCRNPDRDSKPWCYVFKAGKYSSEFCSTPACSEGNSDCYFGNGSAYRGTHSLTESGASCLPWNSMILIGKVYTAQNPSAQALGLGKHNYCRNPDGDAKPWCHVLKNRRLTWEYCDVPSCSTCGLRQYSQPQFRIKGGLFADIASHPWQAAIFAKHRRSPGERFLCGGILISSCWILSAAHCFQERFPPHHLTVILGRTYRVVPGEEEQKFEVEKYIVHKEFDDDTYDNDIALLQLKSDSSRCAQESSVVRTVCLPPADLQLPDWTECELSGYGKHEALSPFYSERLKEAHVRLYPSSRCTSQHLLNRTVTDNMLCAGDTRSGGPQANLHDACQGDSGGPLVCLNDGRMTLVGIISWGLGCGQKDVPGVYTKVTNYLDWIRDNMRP
Experimental: as §1, §2, §3

[7] = molecular target: T4, Factor VIIa:rTF complex (Homo sapiens, UniProt P08709); assay: Factor VIIa assay (S-2288 substrate); type: biochemical; details: 30 min preincubation, room temperature; tested 0.025-25 μM; Inact. = no inhibition at highest concentration
T4 construct: 2.5 ml 400 nMhuman Factor VIIa
T4 sequence (P08709 213-466 limits assumed): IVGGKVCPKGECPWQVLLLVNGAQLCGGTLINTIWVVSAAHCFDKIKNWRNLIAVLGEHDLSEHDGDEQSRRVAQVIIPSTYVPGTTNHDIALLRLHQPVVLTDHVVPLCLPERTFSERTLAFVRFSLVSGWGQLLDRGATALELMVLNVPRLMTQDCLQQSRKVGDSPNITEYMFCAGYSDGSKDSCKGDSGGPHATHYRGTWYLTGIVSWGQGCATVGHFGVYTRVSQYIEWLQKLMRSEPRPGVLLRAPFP
T4 sequence (P08709 61-212 partner limits assumed): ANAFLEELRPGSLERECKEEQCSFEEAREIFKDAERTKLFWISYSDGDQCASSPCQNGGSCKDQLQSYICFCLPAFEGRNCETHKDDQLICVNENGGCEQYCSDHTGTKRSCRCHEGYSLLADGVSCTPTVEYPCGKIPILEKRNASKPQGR
T4 sequence (P13726 33-295 partner): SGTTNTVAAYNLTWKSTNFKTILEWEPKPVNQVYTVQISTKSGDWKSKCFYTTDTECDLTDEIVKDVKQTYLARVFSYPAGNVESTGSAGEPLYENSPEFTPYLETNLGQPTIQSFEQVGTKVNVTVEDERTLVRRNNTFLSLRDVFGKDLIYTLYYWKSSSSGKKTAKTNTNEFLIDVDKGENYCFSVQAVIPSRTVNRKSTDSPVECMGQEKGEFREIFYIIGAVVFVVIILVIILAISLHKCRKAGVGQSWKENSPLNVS
Experimental: (§4) The specificity of the peptide aldehydes (8 through 12) was determined in vitro by measurement of their IC50 against other enzymes involved in hemostasis. A specific concentration of enzyme and its substrate were challenged with varying concentrations of inhibitor. IC50 is that concentration of inhibitor giving 50% inhibition of substrate turnover, under the assay conditions. Specific assay procedures used are presented below.
as §2
Enzyme activity was determined using as substrate, S-2288 [D-isoleucyl-L-prolyl-L-arginine-p-nitroanilide dihydrochloride], purchased from Kabi Diagnostica. The substrate was made up in deionized water prior to use.
Both solutions were then incubated for 30 minutes at room temperature before use in the assay.
The assay was run by combining in appropriate wells 50 μL inhibitor in TBS or TBS alone and 100 μL of Factor VIIa:rTF complex or background control, incubating this mixture for 30 minutes at room temperature, adding 50 μL of 2 mM S-2288, incubating for an additional 30 to 60 minutes at room temperature, then reading the absorbance of the wells at 405 nm on a microtiter plate reader set with background substraction at 650 nm.

[8] = molecular target: T5, bovine thrombin (Bos taurus, UniProt P00735); assay: Thrombin assay (S-2238 substrate); type: biochemical; details: 30 min preincubation, room temperature; tested 0.025-25 μM; Inact. = no inhibition at highest concentration
T5 construct: 50 μL 20 nM bovine thrombin
Experimental: as §4, §2
Enzyme activity was determined using as substrate, S-2238 [D-phenylalanyl-L-pipecolyl-L-arginine-p-nitroanilide dihydrochloride], purchased from Kabi Diagnostica. The substrate was made up in deionized water prior to use.
The assay was run by combining in appropriate wells 50 μL TBS and 50 μL inhibitor in TBS or TBS alone and 50 μL 20 nM bovine thrombin (or TBS as background control), incubating this mixture for 30 minutes at room temperature, adding 50 μL 1 mM S-2238, incubating for an additional 30 minutes at room temperature, then reading the absorbance of the wells at 405 nm on a microtiter plate reader set with background substraction at 650 nm.

[9] = test system: trypsin; details: literature (Saino et al.); cited from earlier work
[10] = test system: human acute pancreatitis; details: literature reports; cited from earlier work
[11] = molecular target: trypsin; details: literature (Jones); read-out: dissociation constant (Kd) trypsin; cited from earlier work
[12] = molecular target: kallikrein; details: literature; cited from earlier work

T1 sequence (P04070 212-461 limits assumed): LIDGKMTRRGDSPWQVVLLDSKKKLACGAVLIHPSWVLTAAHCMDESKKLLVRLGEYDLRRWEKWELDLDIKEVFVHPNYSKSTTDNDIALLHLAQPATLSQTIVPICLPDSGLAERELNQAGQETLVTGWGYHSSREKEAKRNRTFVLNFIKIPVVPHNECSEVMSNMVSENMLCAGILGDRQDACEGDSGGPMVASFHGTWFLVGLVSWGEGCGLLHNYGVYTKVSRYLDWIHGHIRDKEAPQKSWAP
T1 sequence (P04070 43-197 partner limits assumed): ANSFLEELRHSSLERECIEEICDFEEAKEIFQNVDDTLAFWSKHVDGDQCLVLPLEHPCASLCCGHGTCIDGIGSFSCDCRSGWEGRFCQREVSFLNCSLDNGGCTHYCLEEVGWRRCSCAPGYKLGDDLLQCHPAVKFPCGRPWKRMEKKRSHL

| Molecule | IC50 [1] [µM] | IC50 [2] [µM] | efficacy in the treatment of acute pancreatitis induced in animal models [3] | IC50 [4] [µM] | IC50 [5] [µM] | IC50 [6] [µM] | IC50 [7] [µM] | IC50 [8] [µM] | IC50 against trypsin, times lower than that for N-acetyl-L-leucyl-L-leucy-L-argininal [9] | IC50 Xa [2] | efficacy in the treatment of human acute pancreatitis [10] | Kd [11] [nM] | IC50 tPA [6] | IC50 Thrombin [8] | Kd [12] [µM] |
| --- | --- | --- | --- | --- | --- | --- | --- | --- | --- | --- | --- | --- | --- | --- | --- |
| CCOC(=O)c1ccc(OC(=O)CCCCCN=C(N)N)cc1.CS(=O)(=O)O [FOY, gabexate mesilate, reference compound] | 15 | 8 | effective to varying degrees | 1.6 | 0.25 | 9 | > 25 | 6 |  |  |  |  |  |  |  |
| CC(C)C[C@H](NC(=O)[C@@H]1CCC(=O)N1C(=O)OCc1ccccc1)C(=O)N[C@H](C=O)CCCNC(=N)N [N-benzyloxycarbonyl-L-pyroglutamyl-L-leucyl-L-argininal] |  |  |  |  |  |  |  |  | about 7 times |  |  |  |  |  |  |
| Aprotinin [reference compound] | 2 |  |  |  |  |  | > 25 |  |  | Inact. | ineffective | 0.03 | Inact. | Inact. | 0.1 |
